Legend:
Type in all cases: in vivo, Arabidopsis thaliana
[1] = system: Arabidopsis mutant line Cesa1_G1009D; assay: Growth inhibition of Arabidopsis lines in 48-well plates, tolerance factor from IC50; conditions: growth inhibition seven to ten days after seeding
Source text: (§1) For selection of cellulose biosynthesis inhibitor resistant plants EMS mutagenized seed populations of Arabidopsis thaliana are used. EMS mutagenized seed populations are either bought from Lehle Seeds (1102 South Industrial Blvd. Suite D, Round Rock, Texas USA) or are generated as described elsewhere (Heim D R, et. al. (1989) Plant Physiol. 90: 146-150). Causative mutations in CESA wildtype sequences (e.g. SEQ ID NO: 1 or 3) are identified as described by Scheible W R et. al. (2001, Proc. Natl. Acad. of Sci. 98: 10079-10084), McCourt et. al. (WO2013/142968) or with the use of next generation sequencing methods as described by Austin R S, et. al. (2011) Plant Journal 67: 715-725.
(§2) Selected Arabidopsis thaliana lines were assayed for improved resistance to azines like 6-cyclopentyl-N4-(2,3,4,5,6-pentafluorophenyl)-1,3,5-triazine-2,4-diamine; 6-(1-fluoro-1-methyl-ethyl)-N4-(2,3,4,5,6-pentafluorophenyl)-1,3,5-triazine-2,4-diamine; 6-cyclohexyl-N2-(2,3,4,5,6-pentafluorophenyl)-1,3,5-triazine-2,4-diamine; 6-(2,6-difluorophenyl)-N2-(2,3,5,6-tetrafluorophenyl)-1,3,5-triazine-2,4-diamine; N2-(4-chloro-3,5,6-trifluoro-2-pyridyl)-6-(1-fluoro-1-methyl-ethyl)-1,3,5-triazine-2,4-diamine in 48-well plates. Therefore, M2 or M3 seeds are surface sterilized by stirring for 5 min in ethanol+water (70+30 by volume), rinsing one time with ethanol+water (70+30 by volume) and two times with sterile, deionized water. The seeds are resuspended in 0.1% agar dissolved in water (w/v) Four to five seeds per well are plated on solid nutrient medium consisting of half-strength murashige skoog nutrient solution, pH 5.8 (Murashige and Skoog (1962) Physiologia Plantarum 15: 473-497). Compounds are dissolved in dimethylsulfoxid (DMSO) and added to the medium prior solidification (final DMSO concentration 0.1%). Multi well plates are incubated in a growth chamber at 22° C., 75% relative humidity and 110 μmol Phot*m^−2*s^−1 with 14:10 h light:dark photoperiod. Growth inhibition is evaluated seven to ten days after seeding in comparison to wild type plants. Tolerance factors are calculated based on IC50 values of growth inhibition of transformed versus non-transformed Arabidopsis plants (Table 3).

[2] = system: Arabidopsis mutant line Cesa1_G1013R; assay: as above; conditions: growth inhibition seven to ten days after seeding
Source text: as §1, §2

[3] = system: Arabidopsis mutant line Cesa1_P1010L; assay: as above; conditions: growth inhibition seven to ten days after seeding
Source text: as §1, §2

[4] = system: Arabidopsis mutant line Cesa3_S1037F; assay: as above; conditions: growth inhibition seven to ten days after seeding
Source text: as §1, §2

[5] = system: Arabidopsis mutant line Cesa3_S1040L; assay: as above; conditions: growth inhibition seven to ten days after seeding
Source text: as §1, §2

[6] = system: Arabidopsis mutant line Cesa3_S983F; assay: as above; conditions: growth inhibition seven to ten days after seeding
Source text: as §1, §2

[7] = system: wildtype Arabidopsis plants; assay: as above; conditions: growth inhibition seven to ten days after seeding
Source text: as §1, §2

A. thaliana WT L. erecta = assay: Greenhouse phytotox, pre-emergent treatment
Experimental: (§3) Additionally, M2 or M3 Arabidopsis plants are tested for improved tolerance to cellulose biosynthesis-inhibiting herbicides in greenhouse studies (e. g. with the following cellulose biosynthesis-inhibiting herbicides: 6-cyclopentyl-N4-(2,3,4,5,6-pentafluorophenyl)-1,3,5-triazine-2,4-diamine; 6-(1-fluoro-1-methyl-ethyl)-N4-(2,3,4,5,6-pentafluorophenyl)-1,3,5-triazine-2,4-diamine; N4-(4-chloro-3,5,6-trifluoro-2-pyridyl)-6-(1-fluoro-1-methyl-ethyl)-1,3,5-triazine-2,4-diamine; 6-(2,6-difluorophenyl)-N4-(2,3,5,6-tetrafluorophenyl)-1,3,5-triazine-2,4-diamine; N4-(4-bromo-2,3,5,6-tetrafluoro-phenyl)-6-(1-fluoro-1-methyl-ethyl)-1,3,5-triazine-2,4-diamine.

[8] = system: Cesa1_G1009D, fpx2-3 mutant line; assay: Greenhouse phytotox, pre-emergent treatment
Experimental: as §3

[9] = system: Cesa1_G1013R, fpx2-1 mutant line; assay: Greenhouse phytotox, pre-emergent treatment
Experimental: as §3

[10] = system: Cesa1_P1010L, fpx2-2 mutant line; assay: Greenhouse phytotox, pre-emergent treatment
Experimental: as §3

[11] = system: Cesa3_S1037F, fpx1-2 mutant line; assay: Greenhouse phytotox, pre-emergent treatment
Experimental: as §3

[12] = system: Cesa3_S1040L, fpx1-1 mutant line; assay: Greenhouse phytotox, pre-emergent treatment
Experimental: as §3

[13] = system: Cesa3_S983F, fpx1-3 mutant line; assay: Greenhouse phytotox, pre-emergent treatment
Experimental: as §3

SMILES	Relative tolerance rate (wildtype = 1.0) [1]	Relative tolerance rate (wildtype = 1.0) [2]	Relative tolerance rate (wildtype = 1.0) [3]	Relative tolerance rate (wildtype = 1.0) [4]	Relative tolerance rate (wildtype = 1.0) [5]	Relative tolerance rate (wildtype = 1.0) [6]	Relative tolerance rate (wildtype = 1.0) [7]	Phytotox value on a scale from 0-100 (100 is 100% damage) (A. thaliana WT L. erecta; 0.0625 g ai/ha)	Phytotox value on a scale from 0-100 (100 is 100% damage) (A. thaliana WT L. erecta; 0.25 g ai/ha)	Phytotox value on a scale from 0-100 (100 is 100% damage) (A. thaliana WT L. erecta; 0.98 g ai/ha)	Phytotox value on a scale from 0-100 (100 is 100% damage) (A. thaliana WT L. erecta; 3.91 g ai/ha)	Phytotox value on a scale from 0-100 (100 is 100% damage) ([8]; 0.0625 g ai/ha)	Phytotox value on a scale from 0-100 (100 is 100% damage) ([8]; 0.25 g ai/ha)	Phytotox value on a scale from 0-100 (100 is 100% damage) ([8]; 0.98 g ai/ha)	Phytotox value on a scale from 0-100 (100 is 100% damage) ([8]; 3.91 g ai/ha)	Phytotox value on a scale from 0-100 (100 is 100% damage) ([9]; 0.0625 g ai/ha)	Phytotox value on a scale from 0-100 (100 is 100% damage) ([9]; 0.25 g ai/ha)	Phytotox value on a scale from 0-100 (100 is 100% damage) ([9]; 0.98 g ai/ha)	Phytotox value on a scale from 0-100 (100 is 100% damage) ([9]; 3.91 g ai/ha)	Phytotox value on a scale from 0-100 (100 is 100% damage) ([10]; 0.0625 g ai/ha)	also measured
CC(C)(F)c1nc(N)nc(Nc2nc(F)c(F)c(Cl)c2F)n1 [N2-(4-chloro-3,5,6-trifluoro-2-pyridyl)-6-(1-fluoro-1-methyl-ethyl)-1,3,5-triazine-2,4-diamine]	1	10	1	10	4	4	1	45	60	83	99	30	43	93	99	40	50	70	80	50	Phytotox value on a scale from 0-100 (100 is 100% damage) ([10]; 0.25 g ai/ha): 25; Phytotox value on a scale from 0-100 (100 is 100% damage) ([10]; 0.98 g ai/ha): 78; Phytotox value on a scale from 0-100 (100 is 100% damage) ([10]; 3.91 g ai/ha): 98; Phytotox value on a scale from 0-100 (100 is 100% damage) ([11]; 0.0625 g ai/ha): 5; Phytotox value on a scale from 0-100 (100 is 100% damage) ([11]; 0.25 g ai/ha): 15; Phytotox value on a scale from 0-100 (100 is 100% damage) ([11]; 0.98 g ai/ha): 25; Phytotox value on a scale from 0-100 (100 is 100% damage) ([11]; 3.91 g ai/ha): 25; Phytotox value on a scale from 0-100 (100 is 100% damage) ([12]; 0.0625 g ai/ha): 13; Phytotox value on a scale from 0-100 (100 is 100% damage) ([12]; 0.25 g ai/ha): 15; Phytotox value on a scale from 0-100 (100 is 100% damage) ([12]; 0.98 g ai/ha): 78; Phytotox value on a scale from 0-100 (100 is 100% damage) ([12]; 3.91 g ai/ha): 53; Phytotox value on a scale from 0-100 (100 is 100% damage) ([13]; 0.0625 g ai/ha): 23; Phytotox value on a scale from 0-100 (100 is 100% damage) ([13]; 0.25 g ai/ha): 55; Phytotox value on a scale from 0-100 (100 is 100% damage) ([13]; 0.98 g ai/ha): 48; Phytotox value on a scale from 0-100 (100 is 100% damage) ([13]; 3.91 g ai/ha): 13
CC(C)(F)c1nc(N)nc(Nc2c(F)c(F)c(F)c(F)c2F)n1 [6-(1-fluoro-1-methyl-ethyl)-N4-(2,3,4,5,6-pentafluorophenyl)-1,3,5-triazine-2,4-diamine]	2	4	1	4	2	1	1	38	78	100	100	65	78	97	100	13	65	63	97	43	Phytotox value on a scale from 0-100 (100 is 100% damage) ([10]; 0.25 g ai/ha): 50; Phytotox value on a scale from 0-100 (100 is 100% damage) ([10]; 0.98 g ai/ha): 99; Phytotox value on a scale from 0-100 (100 is 100% damage) ([10]; 3.91 g ai/ha): 100; Phytotox value on a scale from 0-100 (100 is 100% damage) ([11]; 0.0625 g ai/ha): 10; Phytotox value on a scale from 0-100 (100 is 100% damage) ([11]; 0.25 g ai/ha): 20; Phytotox value on a scale from 0-100 (100 is 100% damage) ([11]; 0.98 g ai/ha): 30; Phytotox value on a scale from 0-100 (100 is 100% damage) ([11]; 3.91 g ai/ha): 80; Phytotox value on a scale from 0-100 (100 is 100% damage) ([12]; 0.0625 g ai/ha): 20; Phytotox value on a scale from 0-100 (100 is 100% damage) ([12]; 0.25 g ai/ha): 65; Phytotox value on a scale from 0-100 (100 is 100% damage) ([12]; 0.98 g ai/ha): 75; Phytotox value on a scale from 0-100 (100 is 100% damage) ([12]; 3.91 g ai/ha): 98; Phytotox value on a scale from 0-100 (100 is 100% damage) ([13]; 0.0625 g ai/ha): 78; Phytotox value on a scale from 0-100 (100 is 100% damage) ([13]; 0.25 g ai/ha): 45; Phytotox value on a scale from 0-100 (100 is 100% damage) ([13]; 0.98 g ai/ha): 75; Phytotox value on a scale from 0-100 (100 is 100% damage) ([13]; 3.91 g ai/ha): 98
